# Test results taken from PubChem BioAssay AID192 (DTP/NCI, 2004).
# Toxic doses and inconclusive results are not listed.
# System: BDF1 mice, B16 melanoma ip, median survival T/C
# Assay: NCI In Vivo Anticancer Drug Screen. Data for tumor model B16 Melanoma (intraperitoneal) in B6D2F1 (BDF1) mice
# Details: endpoint: median survival time, higher = longer survival
# Procedure, shortened: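 The ratio T/C compares compound-treated mice with vehicle-treated controls, using survival or tumor size as the endpoint in a transplantable tumor model.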
# [1] = dose: 100.0 mg/kg/injection, schedule: Q01DX009 (ip), vehicle: Klucel (hydroxypropylcellulose) (HPC)
# [2] = dose: 200.0 mg/kg/injection, schedule: Q01DX009 (ip), vehicle: Klucel (hydroxypropylcellulose) (HPC)
# [3] = dose: 3.12 mg/kg/injection, schedule: Q01DX009 (ip), vehicle: Klucel (hydroxypropylcellulose) (HPC)
# [4] = dose: 6.25 mg/kg/injection, schedule: Q01DX009 (ip), vehicle: Klucel (hydroxypropylcellulose) (HPC)
# [5] = dose: 12.5 mg/kg/injection, schedule: Q01DX009 (ip), vehicle: Klucel (hydroxypropylcellulose) (HPC)
# [6] = dose: 25.0 mg/kg/injection, schedule: Q01DX009 (ip), vehicle: Klucel (hydroxypropylcellulose) (HPC)
# [7] = dose: 50.0 mg/kg/injection, schedule: Q01DX009 (ip), vehicle: Klucel (hydroxypropylcellulose) (HPC)
# [8] = dose: 50.0 mg/kg/injection, schedule: Q01DX009 (ip), vehicle: carboxymethylcellulose (CMC)
structure (smiles),measurement,setting,value
c1cc2cc3c(cc2c2c1CC1c4cc5c(cc4CCN1C2)OCO5)OCO3 (stereo not given),T/C,[1],89 % of control
same,T/C,[2],86 % of control
COc1cccc(C(O)c2ccncc2C)c1OC (stereo not given),T/C,"dose: 25.0 mg/kg/injection, schedule: Q01DX009 (ip), vehicle: water",98 % of control
same,T/C,"dose: 50.0 mg/kg/injection, schedule: Q01DX009 (ip), vehicle: water",98 % of control
same,T/C,"dose: 100.0 mg/kg/injection, schedule: Q01DX009 (ip), vehicle: water",101 % of control
same,T/C,"dose: 200.0 mg/kg/injection, schedule: Q01DX009 (ip), vehicle: water",104 % of control
Cc1cc(=O)[nH]c(N/N=C/c2ccc(N(C)C)cc2)n1,T/C,"dose: 100.0 mg/kg/injection, schedule: Q01DX009 (ip), vehicle: saline with Tween-80",100 % of control
same,T/C,"dose: 200.0 mg/kg/injection, schedule: Q01DX009 (ip), vehicle: saline with Tween-80",95 % of control
same,T/C,"dose: 400.0 mg/kg/injection, schedule: Q01DX009 (ip), vehicle: saline with Tween-80",97 % of control
COC(=O)C1C2CC3c4[nH]c5cc(OC)ccc5c4CCN3CC2CC(OC(=O)c2cc(OC)c(OC)c(OC)c2)C1OC (stereo not given),T/C,[3],105 % of control
same,T/C,[4],105 % of control
same,T/C,[5],110 % of control
same,T/C,[6],97 % of control
same,T/C,[7],90 % of control
CN(C)/N=N/c1[nH]ncc1C(N)=O,T/C,[8],105 % of control
Oc1ccc(/C=N/NC(=S)NN2CCOCC2)nc1,T/C,[3],104 % of control
same,T/C,[4],103 % of control
same,T/C,[5],104 % of control
same,T/C,[6],108 % of control
CC1=C2C(=O)c3ccccc3C2=C(C)S(=O)(=O)O1,T/C,[8],99 % of control
same,T/C,"dose: 100.0 mg/kg/injection, schedule: Q01DX009 (ip), vehicle: carboxymethylcellulose (CMC)",87 % of control
N#CCN1CCCN(CC#N)C1,T/C,"dose: 75.0 mg/kg/injection, schedule: Q01DX009 (ip), vehicle: Klucel (hydroxypropylcellulose) (HPC)",96 % of control
Cc1cc(C)nc(NC(N)=NCCc2ccccc2)n1,T/C,"dose: 12.5 mg/kg/injection, schedule: Q01DX009 (ip), vehicle: saline with Tween-80",104 % of control
same,T/C,"dose: 25.0 mg/kg/injection, schedule: Q01DX009 (ip), vehicle: saline with Tween-80",88 % of control
same,T/C,"dose: 50.0 mg/kg/injection, schedule: Q01DX009 (ip), vehicle: saline with Tween-80",97 % of control
CC1=C(/C=C/C(C)=N/NC(N)=S)C(C)(C)CCC1,T/C,"dose: 0.3 mg/kg/injection, schedule: Q01DX009 (ip), vehicle: saline with Tween-80",105 % of control
same,T/C,"dose: 6.0 mg/kg/injection, schedule: Q01DX009 (ip), vehicle: saline with Tween-80",97 % of control
same,T/C,"dose: 12.0 mg/kg/injection, schedule: Q01DX009 (ip), vehicle: saline with Tween-80",97 % of control
O=NN(CCF)C(=O)NC1C(O)CCCC1O (stereo not given),T/C,"dose: 1.88 mg/kg/injection, schedule: Q01DX001 (ip), vehicle: saline",121 % of control
same,T/C,"dose: 7.5 mg/kg/injection, schedule: Q01DX001 (ip), vehicle: saline",199 % of control
same,T/C,"dose: 15.0 mg/kg/injection, schedule: Q01DX001 (ip), vehicle: saline",212 % of control
same,T/C,"dose: 30.0 mg/kg/injection, schedule: Q01DX001 (ip), vehicle: saline",263 % of control
same,T/C,"dose: 60.0 mg/kg/injection, schedule: Q01DX001 (ip), vehicle: saline",226 % of control
O=c1oc2ccccc2c(O)c1C(c1ccc(C(c2c(O)c3ccccc3oc2=O)c2c(O)c3ccccc3oc2=O)cc1)c1c(O)c2ccccc2oc1=O,T/C,[7],103 % of control
same,T/C,[1],100 % of control
same,T/C,[2],93 % of control
CN1CCN=C1c1ccc(NC(=O)c2ccc(C(=O)Nc3ccc(C4=NCCN4C)cc3)c(N)c2)cc1,T/C,"dose: 1.25 mg/kg/injection, schedule: Q01DX009 (ip), vehicle: saline",115 % of control
same,T/C,"dose: 1.25 mg/kg/injection, schedule: Q04DX003 (ip), vehicle: saline",89 % of control
same,T/C,"dose: 2.5 mg/kg/injection, schedule: Q01DX009 (ip), vehicle: saline",117 % of control
same,T/C,"dose: 2.5 mg/kg/injection, schedule: Q04DX003 (ip), vehicle: saline",94 % of control
same,T/C,"dose: 5.0 mg/kg/injection, schedule: Q01DX009 (ip), vehicle: saline",115 % of control
same,T/C,"dose: 5.0 mg/kg/injection, schedule: Q04DX003 (ip), vehicle: saline",100 % of control
CCC[CH2][Sn]1([CH2]CCC)[O]OC(c2ccc(OC)cc2)[O]1 (stereo not given),T/C,"dose: 3.12 mg/kg/injection, schedule: Q01DX009 (sc), vehicle: olive oil, sesame oil, peanut oil",93 % of control
O=C(Nc1ccc(F)cc1)Nc1cccc2ccccc12,T/C,[1],97 % of control
same,T/C,[2],94 % of control
